Activity calls are given as the source filed them.
Experiments:
Type in all cases: functional, organism-based
Bacillus subtilis = experiment: Antimicrobial activity against Bacillus subtilis at 100 ug/disk
Saccharomyces cerevisiae = experiment: Antimicrobial activity against Saccharomyces cerevisiae at 100 ug/disk
Bacillus cereus = experiment: Antimicrobial activity against Bacillus cereus at 100 ug/disk

Measured: Activity

CC1(C)C[C@H]2[C@H](O)[C@]3(O)CO[C@]4(O)[C@@H](O)[C@@](C)([C@H]34)[C@H]2C1
inactive: all assays above
